Reference: patent US20250034216A1, “STEREOSELECTIVE COVALENT LIGANDS FOR ONCOGENIC AND IMMUNOLOGICAL PROTEINS” (The Scripps Research Institute, priority 2021, published 2025)

What was measured:
Assay in all cases: IA-DTB cysteine engagement
Assay type in all cases: binding
PRXL2A_C85 = molecular target: T1, PRXL2A_C85 (Homo sapiens, UniProt Q9BRX8); settings: 22Rv1 cells, relative to DMSO; for % engagement PRXL2A_C85: 20 μM probe, 1 h; for % engagement PRXL2A_85: 5 μM probe, 1 h (FIG. 5B)
T1 construct: endogenous in cells; host or cells: 22Rv1
T1 sequence (Q9BRX8 1-229): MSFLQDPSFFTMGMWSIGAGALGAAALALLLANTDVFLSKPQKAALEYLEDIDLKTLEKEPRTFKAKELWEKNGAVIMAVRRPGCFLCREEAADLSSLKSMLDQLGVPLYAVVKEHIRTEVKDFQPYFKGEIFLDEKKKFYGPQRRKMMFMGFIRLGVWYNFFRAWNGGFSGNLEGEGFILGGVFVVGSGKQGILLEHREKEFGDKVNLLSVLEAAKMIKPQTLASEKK
In short: (§1)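 Probe-exposed cells were lysed, IA-DTB-labeled, trypsinized and streptavidin-enriched. Multiplexed TMT quantitation gave engagement ratios versus DMSO, with non-tryptic peptides excluded and intensities normalized to median summed signal.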

ITPR2_C579 = molecular target: T2, ITPR2_C579 (Homo sapiens, UniProt Q14571); settings: 22Rv1 cells, 20 μM probe, 1 h, relative to DMSO
T2 construct: endogenous in cells; host or cells: 22Rv1
In short: as §1

PRORP_C507 = molecular target: T3, PRORP_C507 (Homo sapiens, UniProt O15091); settings: 22Rv1 cells, 20 μM probe, 1 h, relative to DMSO
T3 construct: endogenous in cells; host or cells: 22Rv1
T3 sequence (O15091 46-583): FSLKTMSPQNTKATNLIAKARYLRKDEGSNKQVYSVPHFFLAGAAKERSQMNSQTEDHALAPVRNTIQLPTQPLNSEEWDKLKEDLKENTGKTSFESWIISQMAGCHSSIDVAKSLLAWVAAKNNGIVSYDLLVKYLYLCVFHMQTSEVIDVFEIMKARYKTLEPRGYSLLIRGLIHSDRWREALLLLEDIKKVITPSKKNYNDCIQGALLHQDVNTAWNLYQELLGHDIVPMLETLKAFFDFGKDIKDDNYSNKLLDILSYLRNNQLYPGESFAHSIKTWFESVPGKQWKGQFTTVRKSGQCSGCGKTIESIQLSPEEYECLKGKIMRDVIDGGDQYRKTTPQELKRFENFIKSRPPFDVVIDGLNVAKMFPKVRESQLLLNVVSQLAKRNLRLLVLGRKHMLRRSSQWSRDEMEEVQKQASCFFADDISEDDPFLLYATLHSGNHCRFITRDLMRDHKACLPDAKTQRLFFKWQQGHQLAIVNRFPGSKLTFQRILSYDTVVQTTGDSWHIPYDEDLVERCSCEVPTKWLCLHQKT
In short: as §1

PRAF2_C34 = molecular target: T4, PRAF2_C34 (Homo sapiens, UniProt O60831); settings: 22Rv1 cells, 20 μM probe, 1 h, relative to DMSO
T4 construct: endogenous in cells; host or cells: 22Rv1
T4 sequence (O60831 1-178): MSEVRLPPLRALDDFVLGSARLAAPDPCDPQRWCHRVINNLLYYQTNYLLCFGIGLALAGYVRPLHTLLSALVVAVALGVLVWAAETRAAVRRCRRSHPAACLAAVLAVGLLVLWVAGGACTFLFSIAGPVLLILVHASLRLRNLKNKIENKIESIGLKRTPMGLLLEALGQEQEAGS
In short: as §1

T2 sequence (Q14571 whole entry): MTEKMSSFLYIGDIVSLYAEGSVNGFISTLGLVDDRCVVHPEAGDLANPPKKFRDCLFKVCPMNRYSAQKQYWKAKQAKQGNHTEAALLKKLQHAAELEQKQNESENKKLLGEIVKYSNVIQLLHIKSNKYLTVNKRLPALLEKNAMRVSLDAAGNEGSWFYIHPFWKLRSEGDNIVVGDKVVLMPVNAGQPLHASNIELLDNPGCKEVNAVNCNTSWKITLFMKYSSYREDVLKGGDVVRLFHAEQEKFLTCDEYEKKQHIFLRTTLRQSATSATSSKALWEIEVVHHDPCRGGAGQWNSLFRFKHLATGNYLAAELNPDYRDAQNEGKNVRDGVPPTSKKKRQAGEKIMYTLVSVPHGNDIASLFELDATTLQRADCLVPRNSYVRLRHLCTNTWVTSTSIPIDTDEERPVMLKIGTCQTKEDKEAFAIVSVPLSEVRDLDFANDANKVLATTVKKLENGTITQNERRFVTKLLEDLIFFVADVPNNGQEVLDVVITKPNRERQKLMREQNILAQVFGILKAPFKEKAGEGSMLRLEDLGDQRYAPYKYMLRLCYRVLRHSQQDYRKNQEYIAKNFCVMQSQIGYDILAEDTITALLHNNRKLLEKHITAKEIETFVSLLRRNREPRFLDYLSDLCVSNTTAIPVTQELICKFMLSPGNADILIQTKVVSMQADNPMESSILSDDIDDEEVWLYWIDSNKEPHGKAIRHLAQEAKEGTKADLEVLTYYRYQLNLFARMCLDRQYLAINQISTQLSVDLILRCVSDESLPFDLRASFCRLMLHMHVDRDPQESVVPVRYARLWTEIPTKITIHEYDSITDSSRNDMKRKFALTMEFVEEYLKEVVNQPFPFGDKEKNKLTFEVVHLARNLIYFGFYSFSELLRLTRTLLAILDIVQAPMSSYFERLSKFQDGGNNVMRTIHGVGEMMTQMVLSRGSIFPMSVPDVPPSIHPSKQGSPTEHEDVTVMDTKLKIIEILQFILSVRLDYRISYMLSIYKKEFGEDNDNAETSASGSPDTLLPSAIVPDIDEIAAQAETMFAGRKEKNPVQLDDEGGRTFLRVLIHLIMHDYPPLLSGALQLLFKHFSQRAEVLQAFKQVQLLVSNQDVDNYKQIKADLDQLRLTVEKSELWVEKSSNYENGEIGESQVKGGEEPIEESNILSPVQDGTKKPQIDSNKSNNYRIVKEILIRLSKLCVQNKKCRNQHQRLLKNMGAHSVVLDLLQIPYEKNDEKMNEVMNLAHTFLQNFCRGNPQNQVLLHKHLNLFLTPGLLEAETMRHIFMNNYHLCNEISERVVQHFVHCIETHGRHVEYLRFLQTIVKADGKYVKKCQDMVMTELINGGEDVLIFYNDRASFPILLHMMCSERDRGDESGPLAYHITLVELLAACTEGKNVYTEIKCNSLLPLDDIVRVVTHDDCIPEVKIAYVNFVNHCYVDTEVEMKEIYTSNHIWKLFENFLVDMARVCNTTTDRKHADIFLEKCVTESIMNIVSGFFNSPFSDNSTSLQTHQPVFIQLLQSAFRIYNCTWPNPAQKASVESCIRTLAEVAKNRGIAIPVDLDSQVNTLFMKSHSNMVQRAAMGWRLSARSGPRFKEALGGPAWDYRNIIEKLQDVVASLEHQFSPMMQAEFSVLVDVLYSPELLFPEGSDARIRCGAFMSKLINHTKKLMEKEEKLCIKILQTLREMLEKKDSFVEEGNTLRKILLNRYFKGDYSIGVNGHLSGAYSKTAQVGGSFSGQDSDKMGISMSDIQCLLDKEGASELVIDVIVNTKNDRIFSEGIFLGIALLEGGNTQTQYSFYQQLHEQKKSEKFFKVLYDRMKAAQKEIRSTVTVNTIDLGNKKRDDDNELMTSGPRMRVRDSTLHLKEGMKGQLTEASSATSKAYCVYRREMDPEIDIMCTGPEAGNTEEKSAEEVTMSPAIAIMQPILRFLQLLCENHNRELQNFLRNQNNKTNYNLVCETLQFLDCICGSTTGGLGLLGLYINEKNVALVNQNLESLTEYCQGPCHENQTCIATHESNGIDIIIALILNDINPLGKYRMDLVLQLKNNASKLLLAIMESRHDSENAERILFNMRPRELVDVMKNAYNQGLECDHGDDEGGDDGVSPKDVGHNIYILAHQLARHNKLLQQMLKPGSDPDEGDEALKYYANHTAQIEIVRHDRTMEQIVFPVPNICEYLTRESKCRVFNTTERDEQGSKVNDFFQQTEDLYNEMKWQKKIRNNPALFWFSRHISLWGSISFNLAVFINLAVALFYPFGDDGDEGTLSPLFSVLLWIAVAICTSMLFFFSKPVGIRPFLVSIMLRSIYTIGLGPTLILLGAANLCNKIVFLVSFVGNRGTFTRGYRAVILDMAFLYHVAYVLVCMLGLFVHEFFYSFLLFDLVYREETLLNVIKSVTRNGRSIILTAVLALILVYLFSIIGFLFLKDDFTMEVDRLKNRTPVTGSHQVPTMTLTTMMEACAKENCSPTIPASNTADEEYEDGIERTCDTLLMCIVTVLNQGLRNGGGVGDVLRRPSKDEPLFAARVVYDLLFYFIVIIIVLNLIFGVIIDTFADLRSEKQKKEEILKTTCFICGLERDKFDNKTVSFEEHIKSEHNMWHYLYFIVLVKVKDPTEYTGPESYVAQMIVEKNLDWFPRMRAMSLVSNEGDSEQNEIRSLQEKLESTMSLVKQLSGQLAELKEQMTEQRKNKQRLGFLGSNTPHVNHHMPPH

SMILES: C=CC(=O)N1C[C@@H](c2ccc(Br)cc2)[C@H]1C(=O)Nc1cccc2cccnc12 [MY-1A, (2S,3R)-1-acryloyl-3-(4-bromophenyl)-N-(quinolin-8-yl)azetidine-2-carboxamide]
- % engagement PRXL2A_C85 (PRXL2A_C85): 92.5%
- % engagement ITPR2_C579 (ITPR2_C579): 7.75%
- % engagement PRORP_C507 (PRORP_C507): 6.75%
- % engagement PRAF2_C34 (PRAF2_C34): 76%

SMILES: C=CC(=O)N1C[C@H](c2ccc(Br)cc2)[C@@H]1C(=O)Nc1cccc2cccnc12 [MY-1B, (2R,3S)-1-acryloyl-3-(4-bromophenyl)-N-(quinolin-8-yl)azetidine-2-carboxamide]
- % engagement PRXL2A_85 (PRXL2A_C85): 91.48%
- % engagement PRXL2A_C85 (PRXL2A_C85): 98.75%
- % engagement ITPR2_C579 (ITPR2_C579): 11.25%
- % engagement PRORP_C507 (PRORP_C507): 74.25%
- % engagement PRAF2_C34 (PRAF2_C34): 74%

SMILES: C=CC(=O)N1C[C@H](c2ccc(Br)cc2)[C@H]1C(=O)Nc1cccc2cccnc12 [MY-3A, (2S,3S)-1-acryloyl-3-(4-bromophenyl)-N-(quinolin-8-yl)azetidine-2-carboxamide]
- % engagement PRXL2A_C85 (PRXL2A_C85): 97.5%
- % engagement ITPR2_C579 (ITPR2_C579): 4.5%
- % engagement PRORP_C507 (PRORP_C507): 1.25%
- % engagement PRAF2_C34 (PRAF2_C34): 55.5%

SMILES: C=CC(=O)N1C[C@H](c2ccc(Br)cc2)[C@H]1C(=O)Nc1cccc2cccnc12 [MY-3B, (2S,3S)-1-acryloyl-3-(4-bromophenyl)-N-(quinolin-8-yl)azetidine-2-carboxamide]
- % engagement PRXL2A_C85 (PRXL2A_C85): 98.5%
- % engagement ITPR2_C579 (ITPR2_C579): 70.75%
- % engagement PRORP_C507 (PRORP_C507): 34.5%
- % engagement PRAF2_C34 (PRAF2_C34): 78.5%

SMILES: CC#CC(=O)N1C[C@H](c2ccc(Br)cc2)[C@@H]1C(=O)Nc1cccc2cccnc12 [MY-45B, (2R,3S)-3-(4-bromophenyl)-1-(but-2-ynoyl)-N-(quinolin-8-yl)azetidine-2-carboxamide]
- % engagement PRXL2A_85 (PRXL2A_C85): 86.23%
